The values that follow come from US5736523A, “Antineoplastic heteronapthoquinones” (Biochem Pharma Inc., priority 1995, dated 1998).

Structures can show the parent of a compound that is named as a salt. Where two headings read alike, the source gives them in different places.

Holding throughout (format): cell-based, human
The subject of assay [1] is HT 29 (Colon adenocarcinoma). Description: In vitro cytotoxicity, microculture tetrazolium (MTT) assay, HT 29. As to the method: (§1) In Vitro Cytotoxicity--Microculture Tetrazolium Assay
(§2) The microculture tetrazolium assay was used to test in vitro cytotoxicity. This assay is described in Plumb, J. A. et al., 1989 Cancer Research 49, 4435-4440, which is herein incorporated by reference. The cytotoxicity of compounds towards tumor cells is measured in vitro using the assay. This assay method is based upon the ability of live, but not dead cells to reduce the yellow water soluble dye 3-(4;5-dimethylthiazol-2-yl)-2,5-diphenyltetrazolium bromide (MTT) to its water insoluble purple formazan product.
(§3) Human Tumor Cell lines, used were:
HT 29 (Colon adenocarcinoma) ATCC catalog #HTB-38.
(§4) The cells were maintained in exponential growth in culture in minimal essential media (MEM) supplemented with non-essential amino acids, and containing 15% (v/v) fetal bovine serum, 5 mM L-glutamine, 1 mM sodium pyruvate, and 0.1 U/ml insulin. All cell lines were grown at 37° C. in an atmosphere of 5% CO2 in air.
(§5) Test compounds: 20 mM in DMSO and diluted to a final concentration of 200 μM in culture medium before use.
(§6) The following is the generic description of the assay method. It should be noted that although the conditions described work well with the cells listed above, the initial plating density and the MTT concentration used should be verified for each new cell line used to test compounds.
(§7) For each assay, doxorubicin is included as an inter-assay standard. This allows us to monitor the behaviour of the assay in general, and in particular, to check that the SKVLB line has maintained its resistant phenotype.
(§8) The plate layout is done in the following manner: The assays are carried out in 96-well (8 well×12 well) microtiter plates. Serial dilutions of the compound are tested along the length of the plate. A 1:3 serial dilution of compound in culture medium covers a concentration range from 100 μM to 1.7 nM. Each concentration of compound is tested in quadruplet, allowing two compounds to be tested per plate. Wells containing no cells (blank) and cells with no test compound (control) are included on each plate.
(§9) Cells are plated out in 100 μl of culture medium in the microtiter plates at a density of around 1,500-4,000 cells per well. The plates are incubated overnight to allow the cells to become adherent after which the test compound is added (100 μl of appropriate dilution per well). The cells are incubated with test compound at 37° C. for 48 h after which the compound is replaced with fresh medium. After a further 48 h incubation at 37° C., 50 μl of MTT solution (2 mg/ml) is added to each well. The plates are incubated in the dark for 4 h at 37° C. after which the medium is removed. The MTT formazan product is extracted from the cells by the addition of 200 μl DMSO followed by 50 μl of Sorensen's buffer. The plates are shaken briefly and the absorbance at 570 nm is read using a Molecular Devices UV max plate reader. Curves are fit to the MTT assay data using a four parameter logistic equation, and the data are normalized to fit a 0% to 100% survival scale.

For assay [2], the system named is SKVLB (Ovarian; multidrug resistant). As to the kind of experiment: In vitro cytotoxicity, microculture tetrazolium (MTT) assay, SKVLB. The settings on record: for VLB/OV3: ratio SKVLB / SKOV3. On the procedure: as §1, §2, §3
SKVLB (Ovarian; multidrug resistant)--Dr. V. Ling, Ontario
as §4, §5, §6, §7, §8, §9

Assay [3] deals with SKOV3 (Ovarian adenocarcinoma). As to the kind of experiment: In vitro cytotoxicity, microculture tetrazolium (MTT) assay, SKOV3. As to the method: as §1, §2, §3
SKOV3 (Ovarian adenocarcinoma)--provided by Dr. V. Ling,
as §4, §5, §6, §7, §8, §9

The test system of a further assay is Lox (Melanoma). Description: In vitro cytotoxicity, microculture tetrazolium (MTT) assay, Lox. On the procedure:
as §1, §2, §3
Lox (Melanoma)--Southern Research Institute.
as §4, §5, §6, §7, §8, §9

The test system of assay [4] is T47D (Ductal carcinoma of breast). As to the kind of experiment: In vitro cytotoxicity, microculture tetrazolium (MTT) assay, T47D. As to the method: as §1, §2, §3
T47D (Ductal carcinoma of breast)--ATCC catalog #HTB-133.
as §4, §5, §6, §7, §8, §9

Setting [5] is: Homo sapiens, HT-29, HT29, read-out: IC50.
Where [6] appears, read: SKVLB, multidrug resistant, read-out: IC50.

Consider `CC(=O)C1CC2=C(C(=O)c3ccccc3C2=O)C(O)O1` (centres unmarked) [BCH1148, Methyl (1-hydroxy-5,10-dioxo-3,4,5,10-tetrahydronaphtho [2,3-C]pyran-3-yl) ketone], for which the IC50 – broadly, the concentration at which inhibition is half-maximal – in assay [1] (setting [5]) was > 10000 nM.

For `COP(=O)(CC(=O)[C@H]1CC2=C(C(=O)c3ccccc3C2=O)[C@H](O[C@H]2C[C@H](NC(=O)C(F)(F)F)[C@H](O)[C@H](C)O2)O1)OC` [BCH1690, (1'S,1S,3R)-1-(2',3',6'-trideoxy-3'-trifluoroacetamido-L-lyxohexopyranose)-3-dimethylphosphonoacetyl-5,10-dioxo-3,4,5-10-tetrahydro-1H-naphtho-[2,3-c]-pyran], the IC50 turned out to be 13700 nM in assay [2] (Homo sapiens); 3010 nM in assay [1] (Homo sapiens, HT-29); 1780 nM in assay [3] (Homo sapiens, SK-OV-3); 1620 nM with Lox (Melanoma) (Homo sapiens). For the same compound, the VLB/OV3 in assay [2] is 7.70.

For `CC[C@H]1CC2=C(C(=O)c3ccccc3C2=O)[C@H](NC(C)=O)O1` (relative stereo) [BCH2027, Trans-5,10-dioxo-1-acetamido-3-ethyl-3,4,5,10-tetrahydro-1H-naphtho-[2,3-c]-pyran], in assay [2], the VLB/OV3 is 4.02. For the same compound, the figures for the IC50 (in assay [4] (Homo sapiens); in the assay with Lox (Melanoma) (Homo sapiens)) were 23300 nM and 3040 nM, respectively.

As to `CC(=O)O[C@@H]1[C@H](C)O[C@@H](OC2OC(C(C)=O)CC3=C2C(=O)c2ccccc2C3=O)C[C@@H]1OC(C)=O` (mixture of isomers) [BCH2118, (1'S,1S,3R) and (1'S,1R,3S)-methyl-(1-[dideoxy-2',6'-diacetoxy-3',4'-L-lyxohexopyranose]-5,10-dioxo-3,4,5,10-tetrahydronaphtho-[2,3-c]-pyran-3-yl) ketone], the IC50 came out at 790 nM in assay [2] (setting [6]); 244 nM in assay [4] (read-out: IC50); 203 nM in assay [1] (HT29, read-out: IC50); 120 nM in assay [3] (SKOV3, read-out: IC50). The VLB/OV3 in assay [2] stood at 6.68.

On to `C=C(C)[C@H]1CC2=C(C(=O)c3ccccc3C2=O)[C@H](OC)O1` (relative stereo) [BCH2148, (trans)-5,10-dioxo-3-isopropenyl-1-methoxy-3,4,5,10-tetrahydro-1H-naphtho-[2,3-c]-pyran], for which, in assay [2], the VLB/OV3 is recorded as 0.79. For the same compound, in the assay on Lox (Melanoma) (Homo sapiens), 1550 nM corresponded to half-maximal inhibition (IC50).

On to `CC(=O)C1CC2=C(C(=O)c3ccccc3C2=O)C(OCC2CCN(C(=O)OC(C)(C)C)CC2)O1.Cl` (racemic) [BCH2068, Methyl-(1-O-[N-BOC-4-piperidinemethanol]-5,10-dioxo-3,4,5,10-tetrahydronaphthaleno-[2,3-c]pyran-3-yl) ketone, racemic, hydrochloride], for which the IC50 in assay [2] (setting [6]) is 1200 nM; in assay [4] (read-out: IC50), 422 nM; in assay [1] (HT29, read-out: IC50), 130 nM; with Lox (Melanoma) (read-out: IC50), 1300 nM. For the same compound, the VLB/OV3 in assay [2] was 1.

As to “(1'S,1S,3R)-methyl-(6 and 9-hydroxy-1-[2',3',6'-trideoxy-3'-trifluoroacetamido-4'-hydroxy-L-lyxohexopyranose]-5,10-dioxo-3,4,5,10-tetrahydronaphtho-[2,3-c]-pyran-3-yl-ketone [BCH2078]”, the IC50 in assay [2] (setting [6]) is 2240 nM; in assay [4] (read-out: IC50), 507 nM; in assay [1] (HT29, read-out: IC50), 269 nM; in assay [3] (SKOV3, read-out: IC50) it was 414 nM. In addition, the VLB/OV3 in assay [2] was 5.41.

For `COC1OC(C(=O)NCCCN2CCCC2=O)=CC2=C1C(=O)c1ccccc1C2=O` (centres unmarked) [BCH2166, 1-methoxy-3-(3-N-pyrrolidinomylpropylaminocarbonyl)-5,10-dioxo-5,10-dihydro-1H-naphtho-[2,3-c]-pyran], the IC50 in assay [2] (Homo sapiens, SKVLB, multidrug resistant, read-out: IC50) was 495 to 1200 nM; in assay [4] (Homo sapiens, read-out: IC50), 237 nM; in assay [1] (setting [5]), 443 to 1200 nM; in assay [3] (Homo sapiens, SK-OV-3, SKOV3, read-out: IC50), 140 to 181 nM. In addition, in assay [2], the VLB/OV3 worked out at 2.73.

On to `COP(=O)(CC(=O)[C@@H]1CC2=C(C(=O)c3ccccc3C2=O)[C@@H](O[C@H]2C[C@H](NC(=O)C(F)(F)F)[C@H](O)[C@H](C)O2)O1)OC` [BCH1689, (1'S,1R,3S)-1-(2',3',6'-trideoxy-3'-trifluoroacetamido-L-lyxohexopyranose)-3-dimethylphosphonoacetyl-5,10-dioxo-3,4,5-10-tetrahydro-1H-naphtho-[2,3-c]-pyran], for which the IC50 in assay [2] (Homo sapiens) was 16500 nM; in assay [1] (Homo sapiens, HT-29) it was 3660 nM; in assay [3] (Homo sapiens, SK-OV-3), 2780 nM; in the assay with Lox (Melanoma) (Homo sapiens), 1720 nM. The VLB/OV3 in assay [2] is 5.94.

As to `CC(=O)C1CC2=C(C(=O)c3ccccc3C2=O)C(OC2CC(NC(=O)C(F)(F)F)C(O)C(C)O2)O1` (centres unmarked) [BCH2145], the IC50 in assay [2] (setting [6]) was determined as 13400 nM; in assay [1] (HT29, read-out: IC50) it was 2480 nM; in assay [3] (SKOV3, read-out: IC50), 8190 nM; in the assay with Lox (Melanoma) (read-out: IC50) it was 830 nM. Also, the VLB/OV3 in assay [2] is given as 1.64.

As to `COC1OC(C(=O)NCCN2CCOCC2)=CC2=C1C(=O)c1ccccc1C2=O` (centres unmarked) [BCH2171, 1-methoxy-3-[2-(N-morpholine)ethylaminocarbonyl]-5,10-dioxo-5,10-dihydro-1H-naphtho-[2,3-c]-pyran], the VLB/OV3 in assay [2] came out at 2.16. Moreover, the IC50 in assay [4] (Homo sapiens, read-out: IC50) came out at 398 nM; in assay [1] (HT29, read-out: IC50) it was 219 nM.

In the case of `CC(=O)C1CC2=C(C(=O)c3ccccc3C2=O)C(O[C@H]2C[C@H](NC(=O)C(F)(F)F)[C@H](OS(C)(=O)=O)[C@H](C)O2)O1` (mixture of isomers) [BCH2095, (1'-S,1-S,3-R) and (1'-S,1-R,3-S)-methyl-(1-[2',3',4',6' tetradeoxy-3'-trifluoroacetamido-4'-O-methane-sulfonyl-L-lyxohexopyranose)-5,10-dioxo-3,4,5,10 tetrahydronaphtho-[2,3-c]pyran-3-yl) ketone], the VLB/OV3 in assay [2] is reported as 8.16.

For `COC(=O)[C@]1(C)CC2=C(C(=O)c3ccccc3C2=O)[C@@H](O[C@H]2C[C@H](NC(=O)C(F)(F)F)[C@H](O)[C@H](C)O2)O1` [BCH2077, (1'S,1R,3S)-1-(3'-trifluoroacetamido-2',3',6'-trideoxy-L-lyxohexopyranose)-3-methoxycarbonyl-3-methyl-3,4,5,10-tetrahydro-5,10-dioxo-1H-naphtho-[2,3-c] pyran], the VLB/OV3 in assay [2] is listed as 11.

`CC(=O)O[C@H]1[C@@H](I)[C@H](O[C@H]2O[C@H](C(C)=O)CC3=C2C(=O)c2ccccc2C3=O)O[C@@H](C)[C@H]1OC(C)=O` [BCH1666, (1'S,1R,3S)-methyl-(1-[2',6'-dideoxy-3'-4'-diacetoxy-2'-iodo-L-lyxohexopyranose]-5,10-dioxo-3,4,5,10-tetrahydronaphtho [2,3-c]-pyran-3-yl) ketone]: in assay [2], the VLB/OV3 was 0.75.

Turning to `COC(=O)[C@@H](N)COC1OC(C(C)=O)CC2=C1C(=O)c1ccccc1C2=O` (mixture of isomers) [BCH1654, (1S,2'S,3R) and (1R,2'S,3S)-methyl-(1-[O-serinemethyl ester]-5,10-dioxo-3,4,5,10-tetrahydronaphtaleno [2,3-C]pyran-3-yl) ketone hydrochloride], in assay [2], the VLB/OV3 amounted to 5.25.

On to `COC1OC(C(=O)NCCN2CCCC2)=CC2=C1C(=O)c1ccccc1C2=O.Cl` (centres unmarked) [BCH2839, 1-methoxy-3-[2-(N-pyrrolidinyl)ethylaminocarbonyl]-5,10-dioxo-5,10-dihydro-1H-naphtho-[2,3-c]-pyran hydrochloride salt], for which the VLB/OV3 in assay [2] is reported as 6.14-9.98.

For `COC(=O)[C@H](CC(C)C)NC(=O)[C@H](CO[C@H]1O[C@H](C(C)=O)CC2=C1C(=O)c1ccccc1C2=O)NC(=O)OC(C)(C)C` [BCH1998, (1S,2'S,3S,5'S)-Methyl-(1-O-[N-BOC-Serine-Leucine-Me ester]-5,10-dioxo-3,4,5,10-tetrahydro-1-H-naphtho [2,3-c]pyran-3-yl) ketone], the VLB/OV3 in assay [2] was found to be 13.28.
